According to patent US4465851A, “Guanidinocyclohexanecarboxylic acid derivatives” (Nippon Chemiphar Co., Ltd., priority 1981, dated 1984):
Where a name gives a salt, the structure may show the parent alone.

How the values were obtained:
[1] = tested on: guinea pigs ilea; assay: Anti-acetylcholine action; parameters: species or system guinea pig; conditions: Cavia porcellus, read-out: Anti-acetylcholine effect inhibition of contraction; for inhibition at 25 µg/mL: final conc. 25 μg/ml; for inhibition at 50 µg/mL: final conc. 50 μg/ml
From the text: (§1) Anti-acetylcholine and anti-histamine effects of the present compounds were examined using guinea pigs ilea by the usual method.

[2] = biological target: Urokinase (Homo sapiens, UniProt P00749); assay: Inhibition of urokinase (AGLMe, chromotropic acid method); format: biochemical; conditions: 60 iu urokinase, 10 mM AGLMe, 37° C., 30 minutes, pH 7.5; read-out: Concentration for 50% inhibition (IC50), urokinase
Description: (§2) Inhibitory effects on the TAMe(N^α -tosyl-L-arginine methyl ester) hydrolytic activity of trypsin, plasmin, plasma kallikrein and thrombin were estimated by Hesterin's method modified by Roberts. Inhibition of the BAEe(N^α -benzoyl-L-arginine ethyl ester) hydrolytic activity of pancreas kallikrein was determined by Hesterin's method after incubation at 37° C. for 30 minutes in a 0.1M borate buffer, pH 8.0. Inhibitory effects on urokinase were determined by the chromotropic acid method after incubation of 60 iu of urokinase with 10 mM AGLMe(acetylglycyl-L-lysine methyl ester) at 37° C. for 30 minutes in a 0.06M phosphate buffer, pH 7.5, containing 0.09M NaCl. Inhibition of chymotrypsin was determined by Hesterin's method after incubation with 15 mM ATE (N^α -acetyl-L-tyrosine ethyl ester) for 30 minutes at 37° C. in a 0.1M borate buffer, pH 8.0.

[3] = biological target: Chymotrypsin (Bos taurus, UniProt P00766); assay: Inhibition of chymotrypsin (ATE hydrolysis); format: biochemical; conditions: 15 mM ATE, 30 minutes, 37° C., pH 8.0; read-out: Concentration for 50% inhibition (IC50), chymotrypsin
Description: as §2

[4] = biological target: Pancreas kallikrein (Sus scrofa, UniProt P00752); assay: Inhibition of pancreas kallikrein (BAEe hydrolysis); format: biochemical; conditions: BAEe substrate, 37° C., 30 minutes, pH 8.0; read-out: Concentration for 50% inhibition (IC50), pancreas kallikrein
Sequence of Pancreas kallikrein (P00752 15-246 limits assumed): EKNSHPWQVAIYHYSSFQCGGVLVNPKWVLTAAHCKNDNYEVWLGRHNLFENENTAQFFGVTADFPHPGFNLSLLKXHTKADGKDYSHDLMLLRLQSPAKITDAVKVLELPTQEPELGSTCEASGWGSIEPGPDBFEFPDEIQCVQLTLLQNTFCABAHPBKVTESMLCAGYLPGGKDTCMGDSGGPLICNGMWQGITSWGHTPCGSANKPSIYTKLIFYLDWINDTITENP
Description: as §2

[5] = tested on: guinea pigs ilea; assay: Anti-histamine action; parameters: species or system guinea pig; conditions: Cavia porcellus, read-out: Anti-histamine effect inhibition of contraction; for inhibition at 25 µg/mL: final conc. 25 μg/ml; for inhibition at 50 µg/mL: final conc. 50 μg/ml
From the text: as §1

[6] = tested on: ileum of each sensitized guinea pig; assay: Schultz-Dale reaction; conditions: Cavia porcellus, read-out: Inhibition of contraction (Schultz-Dale reaction); for inhibition at 25 µg/mL: final conc. 25 μg/ml; for inhibition at 50 µg/mL: final conc. 50 μg/ml
Description: Male guinea pigs were sensitized with bovine serum albumin by Freund's complete adjuvant method. After a lapse of 10 days, the animals were sensitized once more as described above. After two more weeks, an ileum of each sensitized guinea pig was removed and used for experiment. The ileum was equipped in a magnus tube containing each test sample, and 500 μg of bovine serum albumin was added. The contraction of the ileum was determined.

[7] = biological target: T1, Trypsin (Bos taurus, UniProt P00760); assay: Inhibition of trypsin (TAMe hydrolysis); format: biochemical; conditions: TAMe substrate; read-out: Concentration for 50% inhibition (IC50), trypsin
T1 sequence (P00760 24-246): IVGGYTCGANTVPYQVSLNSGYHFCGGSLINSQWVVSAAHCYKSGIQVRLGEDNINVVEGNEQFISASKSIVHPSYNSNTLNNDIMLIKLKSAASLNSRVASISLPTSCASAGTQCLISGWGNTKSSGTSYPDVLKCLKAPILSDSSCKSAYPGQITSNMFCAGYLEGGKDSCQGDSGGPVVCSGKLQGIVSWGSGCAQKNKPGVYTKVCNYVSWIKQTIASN
Description: as §2

[8] = biological target: Thrombin (Homo sapiens, UniProt P00734); assay: Inhibition of thrombin (TAMe hydrolysis); format: biochemical; conditions: TAMe substrate; read-out: Concentration for 50% inhibition (IC50), thrombin
[9] = tested on: Mast cells; assay: Effects on histamine release from mast cells induced by compound 48/80; format: cell-based; conditions: Mast cell; 10 μg/ml test compound; compound 48/80 induced; read-out: Inhibition of histamine release
Description: After incubation for 20 minutes at 37° C., the suspension was cooled to 4° C., and released histamine was determined as described by Shore et al. All samples examined were recognized to cause no disturbance in the fluorometric assay.

[10] = biological target: Plasmin (Homo sapiens, UniProt P00747); assay: Inhibition of plasmin (TAMe hydrolysis); format: biochemical; conditions: TAMe substrate; read-out: Concentration for 50% inhibition (IC50), plasmin
Sequence of Plasmin (P00747 97-580 limits assumed, species assumed): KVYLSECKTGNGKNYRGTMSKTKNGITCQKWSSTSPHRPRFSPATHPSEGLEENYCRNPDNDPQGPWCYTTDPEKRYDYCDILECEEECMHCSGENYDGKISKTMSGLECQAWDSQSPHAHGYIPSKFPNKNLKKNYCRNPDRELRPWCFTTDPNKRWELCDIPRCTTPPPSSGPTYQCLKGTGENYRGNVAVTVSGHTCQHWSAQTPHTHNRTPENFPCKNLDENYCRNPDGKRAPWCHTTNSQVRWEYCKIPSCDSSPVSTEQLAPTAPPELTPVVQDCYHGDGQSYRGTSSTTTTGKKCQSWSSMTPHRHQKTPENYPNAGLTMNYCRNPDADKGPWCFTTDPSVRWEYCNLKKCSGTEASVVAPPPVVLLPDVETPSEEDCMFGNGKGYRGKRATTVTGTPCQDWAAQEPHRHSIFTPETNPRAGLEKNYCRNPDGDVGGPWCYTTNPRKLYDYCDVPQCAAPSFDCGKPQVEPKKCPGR
Description: as §2

| SMILES | IC50 [2] | IC50 [4] | inhibition at 25 µg/mL [1] | inhibition at 50 µg/mL [1] | inhibition at 25 µg/mL [5] | inhibition at 50 µg/mL [5] | inhibition at 25 µg/mL [6] | inhibition at 50 µg/mL [6] | inhibition at 10 µg/mL [9] | further results |
| --- | --- | --- | --- | --- | --- | --- | --- | --- | --- | --- |
| N=C(N)NC[C@H]1CC[C@H](C(=O)Oc2ccc(I)cc2)CC1 [Compound 7, 4'-Iodophenyl trans-4-guanidinomethylcyclohexanecarboxylate hydrochloride] |  |  |  |  |  |  |  |  | 18.4% |  |
| N=C(N)NC[C@H]1CC[C@H](C(=O)Oc2ccc(Cl)cc2)CC1 [Compound 10, 4'-Chlorophenyl trans-4-guanidinomethylcyclohexanecarboxylate hydrochloride] |  |  | 89.8% | 100% | 100% | 100% | 100% | 100% |  |  |
| N=C(N)NC[C@H]1CC[C@H](C(=O)Oc2ccc3c(c2)CCC3)CC1 [Compound 23, 5'-Indanyl trans-4-guanidinomethylcyclohexanecarboxylate hydrochloride] |  |  |  |  |  |  |  |  | 12.7% |  |
| N=C(N)NC[C@H]1CC[C@H](C(=O)Oc2ccc(Cl)c3ccccc23)CC1 [Compound 28, 4'-Chloronaphthyl trans-4-guanidinomethylcyclohexanecarboxylate hydrochloride] |  |  | 68% | 76% | 99.7% | 100% | 80% | 100% | 60.9% |  |
| N=C(N)NC[C@H]1CC[C@H](C(=O)Oc2ccc3ccccc3c2[N+](=O)[O-])CC1 [Compound 29, 2'-(1'-Nitro)naphthyl trans-4-guanidinomethylcyclohexanecarboxylate hydrochloride] |  |  | 52% | 80% |  |  |  |  | 20.6% |  |
| N=C(N)NC[C@H]1CC[C@H](C(=O)Oc2ccccc2)CC1 [Compound A, Phenyl trans4-guanidinomethylcyclohexanecarboxylate hydrochloride, reference compound] |  |  |  |  | 100% | 100% | 0% | 0% | 5% |  |

The next lines start with results.

| IC50 [2] | IC50 [4] | SMILES | inhibition at 25 µg/mL [1] | inhibition at 50 µg/mL [1] | inhibition at 25 µg/mL [5] | inhibition at 50 µg/mL [5] | inhibition at 25 µg/mL [6] | inhibition at 50 µg/mL [6] | inhibition at 10 µg/mL [9] | further results |
| --- | --- | --- | --- | --- | --- | --- | --- | --- | --- | --- |
| 260 µM | 320 µM | Cc1ccc(OC(=O)[C@H]2CC[C@H](CNC(=N)N)CC2)cc1 [Compound 3, 4'-Methylphenyl trans-4-guanidinomethylcyclohexanecarboxylate hydrochloride] | 100% | 100% | 98% | 100% | 83.3% | 100% |  | IC50 [3]: 70 µM |
|  | 150 µM | N=C(N)NC[C@H]1CC[C@H](C(=O)Oc2ccc(Br)cc2)CC1 [Compound 6, 4'-Bromophenyl trans-4-guanidinomethylcyclohexanecarboxylate hydrochloride] |  |  |  |  |  |  |  | IC50 [7]: 260 µM; IC50 [8]: 180 µM |
| 30 µM | 400 µM | Cc1ccc(C(C)C)c(OC(=O)[C@H]2CC[C@H](CNC(=N)N)CC2)c1 [Compound 13, 2'-iso-Propyl-5'-methylphenyl trans-4-guanidinomethylcyclohexanecarboxylatehydrochloride] |  |  |  |  |  |  |  | IC50 [10]: 400 µM |
|  | 130 µM | Cc1cc(OC(=O)[C@H]2CC[C@H](CNC(=N)N)CC2)c(C(C)C)cc1Cl [Compound 14, 2'-iso-Propyl-4'-chloro-5'-methylphenyl trans-4-guanidinomethylcyclohexanecarboxylate hydrochloride] |  |  |  |  |  |  | 38.8% | IC50 [10]: 400 µM; IC50 [3]: 100 µM; IC50 [7]: 190 µM; IC50 [8]: 240 µM |
| 110 µM | 30 µM | N#Cc1ccccc1OC(=O)[C@H]1CC[C@H](CNC(=N)N)CC1 [Compound 21, 2'-Cyanophenyl trans-4-guanidinomethylcyclohexanecarboxylate hydrochloride] |  |  |  |  |  |  |  | IC50 [10]: 200 µM |
| 50 µM | 20 µM | N=C(N)NC[C@H]1CC[C@H](C(=O)Oc2ccc3ccc(=O)oc3c2)CC1 [Compound 24, 7'-(2'-Oxochromenyl)trans-4-guanidinomethylcyclohexanecarboxylate hydrochloride] |  |  |  |  |  |  |  | IC50 [3]: 6 µM; IC50 [8]: 230 µM |
